Structures can show the parent of a compound that is named as a salt.
What was measured:
Assay type in all cases: functional
Conditions in all cases: Homo sapiens, read-out: ED50 (the source's name)
[1] = system: A498; assay: Cytotoxicity against A-498 cell line in the purdue cell culture screen was determined
[2] = system: MCF7; assay: Cytotoxicity against MCF-7 cell line in the purdue cell culture screen was determined
[3] = system: PC-3; assay: Cytotoxicity against PC-3 cell line in the purdue cell culture screen was determined
[4] = system: MIA PaCa-2; assay: Cytotoxicity against PACA-2 cell line in the purdue cell culture screen was determined
[5] = system: A549; assay: Cytotoxicity against A-549 cell line in the purdue cell culture screen was determined
[6] = system: MCF7R; assay: Cytotoxicity against MCF-7R cell line in the purdue cell culture screen was determined
[7] = system: NCI/ADR-RES; assay: Cytotoxicity against MCF-7ADR cell line in the purdue cell culture screen was determined
[8] = system: HT-29; assay: Cytotoxicity against HT-29 cell line in the purdue cell culture screen was determined

| SMILES | EC50 [1] [µM] | EC50 [2] [µM] | EC50 [3] [µM] | EC50 [4] [µM] | EC50 [5] [µM] | EC50 [6] [µM] | EC50 [7] [µM] | EC50 [8] [µM] |
| --- | --- | --- | --- | --- | --- | --- | --- | --- |
| CC(C)CCC1([C@@H](C)[C@@]2(O)[C@H](O)C[C@@]3(C)C4CC[C@@]5(C)C[C@@H](O)CC[C@]5(C)[C@@]4(C)CC[C@]23C)OCCO1 (stereo not given in full) | 1.7 | 2.4 | 39 | 6.4 | 13 | 7.1 | 28 | 3 |
| CC(C)CCC(=O)[C@@H](C)[C@@]1(O)C(=O)C[C@@]2(C)C3CC[C@@]4(C)C[C@@H](O)CC[C@]4(C)[C@@]3(C)CC[C@@]21C (stereo not given in full) | 19.3 | 130 | 5.6 | 30 | 105 | 55 | 100 | 1.6 |
| CC(C)CCC1([C@@H](C)[C@@]2(O)C(=O)C[C@@]3(C)C4CC[C@@]5(C)C[C@@H](O)CC[C@]5(C)[C@@]4(C)CC[C@@]32C)OCCO1 (stereo not given in full) | 2.4 | 5.6 | 43 | 23 | 17 | 6.5 | 13 | 2.1 |
| CO/N=C1\C[C@]2(C)CCC3C4=C[C@@H]5OC6(CC(C)(C)CO6)[C@@H](C)[C@@H]5[C@@]4(C)[C@H](O)C[C@]3(C)[C@@]2(C)C[C@H]1N (stereo not given in full) | 3.1 | 14 | 14 | 14 | 5.9 |  | 76 | 7.8 |
| CC(=O)O[C@H]1CC[C@@]2(C)[C@@](C)(CCC3[C@]2(C)CC[C@]2(C)[C@@](O)([C@H](C)C4(CCC(C)C)OCCO4)[C@H](O)C[C@@]32C)C1 (stereo not given in full) | 16 | 23 | 17 | 23 | 30 | 31 | 42 | 29 |
| CC(C)CCC1([C@@H](C)[C@@]2(O)[C@@H](O)C[C@@]3(C)C4CC[C@@]5(C)C[C@@H](O)CC[C@]5(C)[C@@]4(C)CC[C@]23C)OCCO1 (stereo not given in full) | 1.3 |  | 0.4 | 1.2 | 0.34 | 1.6 |  | 0.58 |
| CC(C)CCC1([C@@H](C)[C@@]2(O)[C@@H](O)C[C@@]3(C)C4CC[C@@]5(C)Cc6nc7c(nc6C[C@]5(C)[C@@]4(C)CC[C@]23C)C[C@]2(C)CCC3C4=C[C@@H]5OC6(CC(C)(C)CO6)[C@@H](C)[C@@H]5[C@@]4(C)[C@H](O)C[C@]3(C)[C@@]2(C)C7)OCCO1 (stereo not given in full) | 3.1 |  | 0.3 | > 2.2 | 0.1 | 1 |  | > 2.6 |
| CC(C)CCC1([C@@H](C)[C@@]2(O)[C@@H](O)C[C@@]3(C)C4CC[C@]5(C)Cc6nc7c(nc6C[C@]5(C)[C@]4(C)CC[C@]23C)C[C@@]2(C)CCC3[C@@H]4C[C@@H]5OC6(O[C@](C)(CO)C[C@H]6O)[C@@H](C)[C@]5(O)[C@@]4(C)[C@H](O)C[C@]3(C)[C@@]2(C)C7)OCCO1 (stereo not given in full) | 1.1 |  | 1.1 | 2.4 | 2.9 | 0.62 |  | 0.22 |
| CC(=O)O[C@H]1CC[C@@]2(C)C(=CCC3[C@]4(C)CC(=O)[C@](O)([C@H](C)C5(CCC(C)C)OCCO5)[C@@]4(C)CC[C@@]32C)C1 (stereo not given in full) | 2.8 | 28 | 3.7 | 2.2 | 15 | 11 | 26 | 0.5 |
| CC(C)CCC(=O)[C@@H](C)[C@@]1(O)[C@H](O)C[C@@]2(C)C3CC[C@@]4(C)C[C@@H](O)CC[C@]4(C)[C@@]3(C)CC[C@]12C (stereo not given in full) | 2.4 | 5.6 | 43 | 23 | 17 | 6.5 | 13 | 2.1 |
| CC(=O)O[C@H]1CC[C@@]2(C)[C@@](C)(CCC3[C@]2(C)CC[C@@]2(C)[C@@]3(C)CC(=O)[C@]2(O)[C@H](C)C2(CCC(C)C)OCCO2)C1 (stereo not given in full) | 15 | 39 | 580 | 88 | 31 | 89 | 70 | 7.5 |
| CC(=O)O[C@H]1CC[C@@]2(C)C(=CCC3[C@]4(C)C[C@H](O)[C@](O)([C@H](C)C5(CCC(C)C)OCCO5)[C@@]4(C)CC[C@@]32C)C1 (stereo not given in full) | 2.8 | > 60 | 10 | 11 | 15 | 33 | > 64 | 4.8 |
| C[C@@H]1[C@]2(O[C@H]3C=C4[C@@H]5CC[C@H]6Cc7nc8c(nc7C[C@]6(C)[C@H]5C[C@@H](O)[C@]4(C)[C@]31O)C[C@@H]1CC[C@H]3C4=CC[C@@H]5[C@H](C)[C@@]6(OC[C@]45C(=O)C[C@@H]3[C@@]1(C)C8)OC(C)(C)C[C@H]6O)O[C@](C)(CO)C[C@H]2O [CEPHALOSTATIN 1] |  |  | 1.4 | 4 |  |  | 4.1 |  |
| COc1cccc2c1C(=O)c1c(O)c3c(c(O)c1C2=O)C[C@@](O)(C(=O)CO)C[C@@H]3O[C@H]1C[C@H](N)[C@H](O)[C@H](C)O1 [DOXORUBICIN HYDROCHLORIDE] | 3.5 | 3.4 | 5.7 | 6.3 | 6.2 | 0.6 | 1.5 | 3.7 |

Source: ChEMBL document CHEMBL1131928, “On the relationship of OSW-1 to the cephalostatins” (1999)
